Molecules are shown by their SMILES.

This assay addresses T1, catechol-O-methyltransferase (COMT) (Homo sapiens, UniProt P21964).
T1 construct: M51A variant) was expressed in HEK 293F cells
T1 sequence (P21964 52-271 limits assumed): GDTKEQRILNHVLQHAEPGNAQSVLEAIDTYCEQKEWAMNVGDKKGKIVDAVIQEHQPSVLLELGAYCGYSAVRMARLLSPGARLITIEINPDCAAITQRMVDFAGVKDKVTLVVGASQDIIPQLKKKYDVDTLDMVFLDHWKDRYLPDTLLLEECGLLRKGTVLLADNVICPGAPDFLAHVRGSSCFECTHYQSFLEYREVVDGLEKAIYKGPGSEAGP
Briefly: COMT inhibition assay (HTRF, production of S-adenosyl homocysteine). The format is biochemical. As to conditions: recombinant human COMT, HTRF SAH production; MB-COMT or S-COMT not stated for Table 1. In a few lines: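 SAH formed from SAM (20 μM) measured by HTRF with SAH standard curve; pIC50 from 4-parameter fit. MB-COMT (M51A, HEK293F membranes, 62 ng/well): 1.5 μM dopamine, 40 min, 37° C.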
Turning to `Cc1ccc(S(=O)(=O)c2cc(Br)c(O)c3ncccc23)cc1` [Example 108, 7-bromo-5-(p-tolylsulfonyl)quinolin-8-ol], the “Activity range (pIC50, COMT inhibition)” value is reported as “++ (a pIC50 of from about great than 6 to 7)”.

`O=C(c1ccccc1)C1CCN(S(=O)(=O)c2ccc(O)c3ncccc23)CC1` [Example 85, [1-[(8-hydroxy-5-quinolyl)sulfonyl]-4-piperidyl]-phenyl-methanone]: the “Activity range (pIC50, COMT inhibition)” value was “+++ (a pIC50 of above about 7)”.

As to `O=S(=O)(c1ccc(O)c2ncccc12)N1CCC(c2ccccc2)CC1` [Example 73, 5-[(4-phenyl-1-piperidyl)sulfonyl]quinolin-8-ol], the “Activity range (pIC50, COMT inhibition)” value was “+++ (a pIC50 of above about 7)”. Consider `O=S(=O)(c1ccccc1)c1ccc(O)c2ncccc12` [Example 22, 5-(benzenesulfonyl)quinolin-8-ol], for which the “Activity range (pIC50, COMT inhibition)” value was “+++ (a pIC50 of above about 7)”. On to `Cc1ccc(CS(=O)(=O)c2ccc(O)c3ncccc23)cc1` [Example 32, 5-(p-tolylmethylsulfonyl)quinolin-8-ol], for which the “Activity range (pIC50, COMT inhibition)” value is “++ (a pIC50 of from about great than 6 to 7)”.

Regarding `O=S(=O)(c1ccncc1)c1ccc(O)c2ncccc12` [Example 17, 5-(4-pyridylsulfonyl)quinolin-8-ol], the “Activity range (pIC50, COMT inhibition)” value is on record as “++ (a pIC50 of from about great than 6 to 7)”.

`O=S(=O)(c1ccc(O)c2ncccc12)N1CCCC1Cc1ccccc1` (stereo not drawn) [Example 75, 5-(2-benzylpyrrolidin-1-yl)sulfonylquinolin-8-ol]: the “Activity range (pIC50, COMT inhibition)” value is listed as “+++ (a pIC50 of above about 7)”. As for `O=S(=O)(c1ccc(O)c2ncccc12)C1CCN(c2ccc(F)cc2)CC1` [Example 37, 5-[[1-(4-fluorophenyl)-4-piperidyl]sulfonyl]quinolin-8-ol], the “Activity range (pIC50, COMT inhibition)” value is “++ (a pIC50 of from about great than 6 to 7)”. Next, `O=S(=O)(c1cccc(C(F)(F)F)c1)c1ccc(O)c2ncccc12` [Example 13, 5-[3-(trifluoromethyl)phenyl]sulfonylquinolin-8-ol]: “+++ (a pIC50 of above about 7)”; `COc1cccc(CN(C)S(=O)(=O)c2ccc(O)c3ncccc23)c1` [Example 42, 8-hydroxy-N-[(3-methoxyphenyl)methyl]-N-methyl-quinoline-5-sulfonamide]: “+++ (a pIC50 of above about 7)”; `Cc1cc(C)cc(S(=O)(=O)c2ccc(O)c3ncccc23)c1` [Example 4, 5-(3,5-dimethylphenyl)sulfonylquinolin-8-ol]: “+++ (a pIC50 of above about 7)”.

`O=S(=O)(c1cc(Cl)cc(Cl)c1)c1ccc(O)c2ncccc12` [Example 8, 5-(3,5-dichlorophenyl)sulfonylquinolin-8-ol]: the “Activity range (pIC50, COMT inhibition)” value is reported as “++ (a pIC50 of from about great than 6 to 7)”. The same measure for `CC1CN(C(=O)OC(C)(C)C)CCN1S(=O)(=O)c1ccc(O)c2ncccc12` (stereo not drawn) [Example 105, tert-butyl 4-[(8-hydroxy-5-quinolyl)sulfonyl]-3-methyl-piperazine-1-carboxylate]: “++ (a pIC50 of from about great than 6 to 7)”; for `O=S(=O)(c1ccc(O)c2ncccc12)c1cccc2c1ncn2Cc1ccccc1Cl` [Example 28, 5-[1-[(2-chlorophenyl)methyl]benzimidazol-4-yl]sulfonylquinolin-8-ol]: “+++ (a pIC50 of above about 7)”. Next, `Cc1ccccc1C1CCCN1S(=O)(=O)c1ccc(O)c2ncccc12` (stereo not drawn) [Example 71, 5-[2-(o-tolyl)pyrrolidin-1-yl]sulfonylquinolin-8-ol]: “+++ (a pIC50 of above about 7)”; `O=S(=O)(c1cccc(-c2ccc(F)c(Cl)c2)c1)c1ccc(O)c2ncccc12` [Example 24, 5-[3-(3-chloro-4-fluoro-phenyl)phenyl]sulfonylquinolin-8-ol]: “+++ (a pIC50 of above about 7)”. On to `O=S(=O)(c1ccc(O)c2ncccc12)C1CCCC1` [Example 31, 5-cyclopentylsulfonylquinolin-8-ol], for which the “Activity range (pIC50, COMT inhibition)” value was “+++ (a pIC50 of above about 7)”.

As to `O=S(=O)(c1ccc(O)c2ncccc12)N1CCC(c2ccc(F)cc2)C1` (stereo not drawn) [Example 62, 5-(3-(4-fluorophenyl)pyrrolidin-1-yl)sulfonylquinolin-8-ol], the “Activity range (pIC50, COMT inhibition)” value is listed as “+++ (a pIC50 of above about 7)”. As to `O=S(=O)(c1ccc(O)c2ncccc12)N1CCN(c2ccc(Cl)cn2)CC1` [Example 69, 5-[4-(5-chloro-2-pyridyl)piperazin-1-yl]sulfonylquinolin-8-ol], the “Activity range (pIC50, COMT inhibition)” value is reported as “++ (a pIC50 of from about great than 6 to 7)”. As for `Cc1ccc(S(=O)(=O)c2cc(Cl)c(O)c3ncccc23)cc1` [Example 109, 7-chloro-5-(p-tolylsulfonyl)quinolin-8-ol], the “Activity range (pIC50, COMT inhibition)” value is recorded as “+++ (a pIC50 of above about 7)”. Next, `Cc1ccc(S(=O)(=O)c2ccc(O)c3ncccc23)c(C)c1` [Example 10, 5-(2,4-dimethylphenyl)sulfonylquinolin-8-ol]: “+++ (a pIC50 of above about 7)”; `COc1ccc(S(=O)(=O)c2ccc(O)c3ncccc23)cc1` [Example 18, 5-(4-methoxyphenyl)sulfonylquinolin-8-ol]: “+++ (a pIC50 of above about 7)”. For the compound `Cc1ccc(CNS(=O)(=O)c2ccc(O)c3ncccc23)cc1` [Example 44, 8-hydroxy-N-(4-methylbenzyl)quinoline-5-sulfonamide], the “Activity range (pIC50, COMT inhibition)” value was “++ (a pIC50 of from about great than 6 to 7)”. `N#Cc1ccccc1N1CCN(S(=O)(=O)c2ccc(O)c3ncccc23)CC1` [Example 90, 2-[4-[(8-hydroxy-5-quinolyl)sulfonyl]piperazin-1-yl]benzonitrile]: the “Activity range (pIC50, COMT inhibition)” value is “+++ (a pIC50 of above about 7)”.

Take `O=S(=O)(c1ccc(O)c2ncccc12)N1CC2CCC(CC2)C1` [Example 91, 5-(3-azabicyclo[3.2.2]nonan-3-ylsulfonyl)quinolin-8-ol]: the “Activity range (pIC50, COMT inhibition)” value was “+++ (a pIC50 of above about 7)”. Next, `O=S(=O)(c1ccc(O)c2ncccc12)N1CCN(Cc2ccc(F)cc2)CC1` [Example 101, 5-[4-[(4-fluorophenyl)methyl]piperazin-1-yl]sulfonylquinolin-8-ol]: “+++ (a pIC50 of above about 7)”; `C[C@@H]1CCCN1S(=O)(=O)c1cc(Cl)c(O)c2ncccc12` [Example 119, 7-chloro-5-[(2R)-2-methylpyrrolidin-1-yl]sulfonyl-quinolin-8-ol]: “++ (a pIC50 of from about great than 6 to 7)”. Regarding `O=S(=O)(c1ccc(O)c2ncccc12)N1CCOCC1` [Example 64, 5-(4-morpholin-1-yl)sulfonylquinolin-8-ol], the “Activity range (pIC50, COMT inhibition)” value was “++ (a pIC50 of from about great than 6 to 7)”. The same measure for `O=S(=O)(c1ccc(Cl)cc1)c1ccc(O)c2ncccc12` [Example 9, 5-(4-chlorophenyl)sulfonylquinolin-8-ol]: “+++ (a pIC50 of above about 7)”. Next, `Cc1cc(S(=O)(=O)N2C[C@@H](F)[C@H](F)C2)c2cccnc2c1O` [Example 116, 5-[(3R,4R)-3,4-difluoropyrrolidin-1-yl]sulfonyl-7-methyl-quinolin-8-ol]: “+ (a pIC50 of from about 4.5 to 6)”; `O=S(=O)(c1ccc(F)cc1)c1ccc(O)c2ncccc12` [Example 2, 5-(4-fluorophenyl)sulfonylquinolin-8-ol]: “+++ (a pIC50 of above about 7)”. Next, `O=S(=O)(c1ccc(O)c2ncccc12)N1CCc2cccnc2C1` [Example 67, 5-(6,8-dihydro-5H-1,7-naphthyridin-7-ylsulfonyl)quinolin-8-ol]: “+++ (a pIC50 of above about 7)”; `CC(C)(C)c1ccc(S(=O)(=O)c2ccc(O)c3ncccc23)cc1` [Example 5, 5-(4-tert-butylphenyl)sulfonylquinolin-8-ol]: “+++ (a pIC50 of above about 7)”; `O=S(=O)(c1ccc(O)c2ncccc12)N1CCCC1c1cccnc1` (stereo not drawn) [Example 72, 5-[2-(3-pyridyl)pyrrolidin-1-yl]sulfonylquinolin-8-ol]: “++ (a pIC50 of from about great than 6 to 7)”. As for `CC(C)(C)OC(=O)N1CCN(S(=O)(=O)c2ccc(O)c3ncccc23)CC1` [Example 103, tert-butyl 4-[(8-hydroxy-5-quinolyl)sulfonyl]piperazine-1-carboxylate], the “Activity range (pIC50, COMT inhibition)” value was “++ (a pIC50 of from about great than 6 to 7)”. Take `Cc1ccc(S(=O)(=O)c2cc(I)c(O)c3ncccc23)cc1` [Example 107, 7-iodo-5-(p-tolylsulfonyl)quinolin-8-ol]: the “Activity range (pIC50, COMT inhibition)” value is “++ (a pIC50 of from about great than 6 to 7)”.

Regarding `O=S(=O)(c1ccc(O)c2ncccc12)N1Cc2ccccc2C1` [Example 47, 5-isoindolin-2-ylsulfonylquinolin-8-ol], the “Activity range (pIC50, COMT inhibition)” value is given as “+++ (a pIC50 of above about 7)”. In the case of `O=S(=O)(c1ccc(Cl)c(Cl)c1)c1ccc(O)c2ncccc12` [Example 15, 5-(3,4-dichlorophenyl)sulfonylquinolin-8-ol], the “Activity range (pIC50, COMT inhibition)” value is given as “++ (a pIC50 of from about great than 6 to 7)”. Consider `C[C@H](c1ccccc1)N(C)S(=O)(=O)c1ccc(O)c2ncccc12` [Example 50, 8-hydroxy-N-methyl-N-[(1R)-1-phenylethyl]quinoline-5-sulfonamide], for which the “Activity range (pIC50, COMT inhibition)” value is reported as “+++ (a pIC50 of above about 7)”.

For the origin of these results see patent publication US10035799B2, “COMT inhibiting methods and compositions” (Lieber Institute for Brain Development, priority 2015, dated 2018).
